We go through one molecule from US11504394B2, “Targeted ionophore-based metal delivery” (The Regents of the University of California, priority 2018, dated 2022).

The nature of data set [1]: Dynamic light scattering, colloidal aggregate formation. The format is physicochemical. On the procedure: To assess colloidal aggregate formation, Gal-Cu(gtsm) was dissolved in PBS (pH 7.4) to a final concentration of 1 mM. The hydrodynamic diameter (DH) of the formed colloidal particles were determined by dynamic light scattering (DLS) obtained on a Zetasizer® Nano Series (Malvern Instruments, UK) and reported as the number-weighted mean. Samples were filtered with a 0.2 μm syringe filter and measured with a disposable ZEN0040 cuvette. Peaks of varying sizes were found, indicating a polydisperse formation of Gal-Cu(gtsm) aggregates. Measurements were taken in triplicate. Error is reported as the standard deviation from three separate replicates.

Data set [2] can be described thus: Retention of copper in presence of excess Zn^2+ and Fe^2+. The format is physicochemical. The following applies: 1000-fold excess of Zn^2+ and Fe^2+. The protocol:
All spectroscopic measurements were performed in 20 mM PBS, pH 7.4 unless otherwise indicated. Absorption spectra were acquired on a Varian Cary 50 spectrophotometer.

In data set [3] the test system is HEK 293T cells. Description: Cell viability, propidium iodide staining, HEK 293T. The data set is classed as cell-based. To be noted: 500 μM dose, three hours. On the procedure:
Flow cytometry experiments were performed with BD LSR Fortessa Cell Analyzer in the College of Chemistry at UC Berkeley. Gains were set to include live cells based on viability experiments using propidium iodide, with dead cells via 0.1% saponin treatment as a negative control. The standard PE-A (570 nm longpass, 586/15 nm bandpass) was used. For each biological replicate, three technical replicates of 5,000 (HepG2) or 10,000 cells (HEK 293T) were counted. Flow cytometry data was processed using FlowJo (FlowJo, LLC).
HEK 293T cells were plated in 6-well plates at 60-80% confluency. After ionophore treatment at the given concentration for three hours, cells were washed with DMEM and incubated with 3 μM propidium iodide in PBS for 15 minutes, then rinsed in PBS. HEK 293T cells were mechanically removed via pipetting off the plate with 1 mL PBS and filtered through a 35 μm nylon mesh into 5 mL culture tubes for analysis. HepG2 cells were plated in 12-well plates at 60-80% confluency. […]

The subject of data set [4] is HepG2 (ASGPR-expressing) cells. Description: Cellular copper delivery by ICP-MS, HepG2. The data set is classed as cell-based. The protocol: (§1) Cells were maintained by the UC Berkeley Tissue Culture Facility. HEK 293T and HepG2 cells were maintained as a monolayer in exponential growth at 37° C. in a 5% CO2 atmosphere. HEK 293T cells were maintained in Dulbecco's Modified Eagle Medium (DMEM, Gibco) supplemented with 10% fetal bovine serum (FBS, Hyclone), and glutamax (Gibco). HepG2 cells were maintained in low glucose DMEM with L-glutamine and sodium pyruvate (Gibco). One day before ionophore treatment, cells were passaged and plated in DMEM with glutamax supplemented with 10% FBS on either poly D-lysine-coated (HEK 293T) or gelatin-coated (HepG2) sterile 6-well Corning polystyrene plates. Cells were grown to 60 to 80% confluency prior to ionophore treatment.
Cells were washed twice with serum-free DMEM. 2 mM stock solutions of Cu(gtsm) or Gal-Cu(gtsm) were diluted in serum-free DMEM to a final ionophore concentration of 4 μM. 2 mL of vehicle (0.2% DMSO in DMEM), 4 μM Cu(gtsm), or 4 μM Gal-Cu(gtsm) were then added to the 6-well plates and incubated for three hours. For the galactose competition experiment, cells were washed twice with serum-free DMEM, then incubated with 2 mL serum-free DMEM either with or without 1 M D-galactose (Sigma Aldrich) for 15 minutes. 4 μL of DMSO, 2 mM Cu(gtsm), or 10 mM Gal-Cu(gtsm) was diluted with 300 μL of cell media, which was then mixed back into each well. Cells were then incubated for one hour. Cells were then rinsed twice with ice-cold EDTA (1 mM in 50 mM HEPES buffer, pH=7.4) to remove cell surface-bound copper and rinsed twice with ice-cold 50 mM HEPES buffer (pH=7.4), followed by the addition of 215 μL concentrated nitric acid (BDH Aristar Ultra). The plates were sealed with Parafilm and incubated on a shaker overnight. Samples (150 μL) were further diluted in 2 mL 2% nitric acid (made freshly from concentrated nitric acid and Milli-Q water) in 15 mL tubes (Sarstedt) and analyzed on a Thermo Fisher iCAP Qc ICP mass spectrometer in kinetic energy discrimination (KED) mode against a standard curve of known copper and phosphorus concentrations (CMS-5, Inorganic Ventures), with Ga (20 μg/L, Inorganic Ventures) as an internal standard. Each experiment was carried out twice and each condition was repeated in at least triplicate.

The subject of data set [5] is HEK 293T (no ASGPR expression) cells. Description: Cellular copper delivery by ICP-MS, HEK 293T. The data set is classed as cell-based. To be noted: 4 μM, three hours, serum-free DMEM. The protocol: as §1
Cells were washed twice with serum-free DMEM. 2 mM stock solutions of Cu(gtsm) or Gal-Cu(gtsm) were diluted in serum-free DMEM to a final ionophore concentration of 4 μM. […] Samples (150 μL) were further diluted in 2 mL 2% nitric acid (made freshly from concentrated nitric acid and Milli-Q water) in 15 mL tubes (Sarstedt) and analyzed on a Thermo Fisher iCAP Qc ICP mass spectrometer in kinetic energy discrimination (KED) mode against a standard curve of known copper and phosphorus concentrations (CMS-5, Inorganic Ventures), with Ga (20 μg/L, Inorganic Ventures) as an internal standard. […]

For data set [6], the system named is blood urea nitrogen (BUN). Description: Blood urea nitrogen (BUN) assay on serum. The following applies: 0.75 mg Cu/kg. The format is in vivo, mice. On the procedure:
Mice were immediately euthanized by cervical dislocation.
Liver lysate (TBARS Assay via TCA Method, Cayman Chemical) and serum (BUN Assay, Invitrogen; ALT Assay, Cayman Chemical) samples were processed according to manufacturer instructions; sample concentration was selected based on initial dilution screening to fall within linear range of the standard curve. All samples were analyzed in triplicate.

In data set [7] the test system is mouse model for non-alcoholic fatty liver disease. Description: High fat diet mouse model for non-alcoholic fatty liver disease. The data set is classed as in vivo, mice. On the procedure: The potential of Gal-Cu(gtsm) in the treatment of non-alcoholic fatty liver disease (NFALD) was assessed in a mouse model. Mice were subjected to a high fat diet.
Data set [8] deals with ATP7B Cu export protein. Description: Western blot ATP7B in high fat diet mice. The data set is classed as in vivo. Background: In western blotting, separated proteins are transferred to a membrane and probed.
For data set [9] the following is noted: mouse, in vivo.
Experimental: FVB-luc+ mice were heavily anesthetized and blood was collected via cardiac puncture. Mice were immediately euthanized by cervical dislocation. Tissues were harvested, rinsed twice with DPBS, snap-frozen under liquid nitrogen, and placed on dry ice in cryotubes and stored at −80° C. until analysis. Serum was isolated by allowing blood samples to coagulate for 1 hour at room temperature, centrifuging at 1,500 g for 15 minutes at 4° C., then collecting the serum supernatant. Samples were aliquoted, snap-frozen, and stored at −80° C. until analysis.
20-100 mg portions of the harvested tissues were digested in concentrated nitric acid (100 mg tissue/mL HNO3, BDH Aristar Ultra) at 95° C. for 2 h in 1.5 mL tubes (Sarstedt) with small holes poked in the caps with an 18G needle. After overnight incubation at room temperature, samples were diluted into freshly prepared 2% nitric acid and doped with a gallium internal standard (Inorganic Ventures, diluted from 1 ppm in 2% nitric acid to a 20 ppb final concentration). The copper content was determined by measuring ^63Cu using a Thermo Fisher iCAP-Qc ICP-MS in Kinetic Energy Discrimination (KED) mode. Measurements were normalized to a standard curve of known copper concentrations doped with 20 ppb Ga. The standard curve was diluted from CMS-5 (Inorganic Ventures).

Molecule `CNC1=N[N+]2=CC=[N+]3N=C(NCCOCCOCCOC4OC(CO)C(O)C(O)C4NC(C)=O)[S][Cu-2]23[S]1` (centres unmarked) [Gal-Cu(gtsm)] registered a number-weighted hydrodynamic diameter in [1] (1 mM in PBS (pH 7.4), DLS, error = standard deviation) of 4.60±0.69 nm. Further, the “colloid formation in aqueous buffer” value in [1] (aqueous buffer) is reported as “forms colloids”. For the same molecule, in data set [2], the “retention of copper in presence of other metal ions” value is recorded as “retains copper selectively”. In addition, the “ionophore toxicity (cell viability)” value in data set [3] is on record as “non-toxic”. For the same molecule, the “Cu increase relative to basal levels (^63Cu/^31P)” value in [4] (HepG2, 4 μM, three hours, serum-free DMEM) was 4 fold. The temperature dependent uptake result in data set [4] (HepG2, 4° C. vs 37° C.) was “much higher uptake at 37 °C than at 4 °C”. The “Cu delivery in presence of D-galactose (competitive ASGPR ligand)” value in [4] (HepG2, D-galactose 1 M, one hour, Cu(gtsm) 4 μM, Gal-Cu(gtsm) 20 μM) is on record as “significantly attenuated”. For the same molecule, the “dose response of cellular copper content” value in data set [4] (HepG2, ICP-MS total copper) was “robust dose-dependent copper delivery response”. Further, the “Cu increase relative to basal levels (^63Cu/^31P)” value in data set [5] is reported as “does not increase cellular copper beyond basal levels”. Moreover, in data set [6], the BUN levels entry is on record as “not”. For the same molecule, the “tissue copper content (ICP-MS)” value in data set [7] is “restores copper homeostasis”. In [7] (vs untreated HFD mice), the glucose tolerance test entry is “improved metabolism”; the “liver steatosis and fattiness” value was “significantly reduced”; the “serum ALT assay” value is given as “rescued liver health”. The ATP7B expression entry in data set [8] was “reduced expression”. The “hepatic copper delivered relative to Cu(gtsm)” value in data set [9] is “ca. 4 times”. Moreover, the “time for hepatic copper stores to clear to basal levels” value in [9] (ip) turned out to be 72 h.
